Measurements published in US6528494B2 (priority 1996, dated 2003).
Where a name gives a salt, the structure may show the parent alone.

How the values were obtained:
Type in all cases: cell-based
[1] = molecular target: T1, adenosine 1 receptor (Homo sapiens, UniProt P30542); test: Agonist activity against adenosine 1 receptor (CHO cells, forskolin-enhanced cAMP/SPAP reporter); conditions: CHO cells transfected with human receptor, forskolin-enhanced cAMP via SPAP, mean of all the versions tested
T1 sequence (P30542 1-326): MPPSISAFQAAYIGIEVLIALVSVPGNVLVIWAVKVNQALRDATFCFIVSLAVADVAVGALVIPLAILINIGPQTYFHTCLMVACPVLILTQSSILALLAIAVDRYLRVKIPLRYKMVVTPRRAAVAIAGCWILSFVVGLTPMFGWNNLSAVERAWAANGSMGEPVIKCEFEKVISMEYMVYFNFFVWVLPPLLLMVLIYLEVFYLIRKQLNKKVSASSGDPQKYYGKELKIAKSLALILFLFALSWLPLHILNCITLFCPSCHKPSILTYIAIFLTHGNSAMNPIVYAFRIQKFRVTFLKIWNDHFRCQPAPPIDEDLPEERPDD
Description: (§1) (1) Agonist activity against adenosine 2a, adenosine 1 and adenosine 3 receptor subtypes.
(§2) The effect of test compounds was determined by their effects on basal levels of cAMP (A2a) or on forskolin-enhanced cAMP (A1 and A3) as reflected by changes in levels of SPAP.

[2] = molecular target: adenosine 2a receptor (Homo sapiens, UniProt P29274); test: Agonist activity against adenosine 2a receptor (CHO cells, cAMP/SPAP reporter); conditions: CHO cells transfected with human receptor, basal cAMP via SPAP, mean of all the versions tested
Description: as §1, §2

[3] = molecular target: T2, adenosine 3 receptor (Homo sapiens, UniProt P0DMS8); test: Agonist activity against adenosine 3 receptor (CHO cells, forskolin-enhanced cAMP/SPAP reporter); conditions: CHO cells transfected with human receptor, forskolin-enhanced cAMP via SPAP, mean of all the versions tested
T2 sequence (P0DMS8 1-318): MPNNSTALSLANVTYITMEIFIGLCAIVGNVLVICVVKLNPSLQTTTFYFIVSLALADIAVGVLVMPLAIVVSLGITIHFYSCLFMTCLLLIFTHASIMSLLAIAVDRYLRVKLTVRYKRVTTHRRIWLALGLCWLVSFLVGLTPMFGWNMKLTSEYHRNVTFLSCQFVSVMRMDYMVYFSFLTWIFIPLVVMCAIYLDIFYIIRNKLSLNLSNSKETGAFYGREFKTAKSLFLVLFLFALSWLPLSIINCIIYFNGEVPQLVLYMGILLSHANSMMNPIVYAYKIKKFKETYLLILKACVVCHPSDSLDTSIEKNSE
Description: as §1, §2

Chain of adenosine 2a receptor (P29274 whole entry): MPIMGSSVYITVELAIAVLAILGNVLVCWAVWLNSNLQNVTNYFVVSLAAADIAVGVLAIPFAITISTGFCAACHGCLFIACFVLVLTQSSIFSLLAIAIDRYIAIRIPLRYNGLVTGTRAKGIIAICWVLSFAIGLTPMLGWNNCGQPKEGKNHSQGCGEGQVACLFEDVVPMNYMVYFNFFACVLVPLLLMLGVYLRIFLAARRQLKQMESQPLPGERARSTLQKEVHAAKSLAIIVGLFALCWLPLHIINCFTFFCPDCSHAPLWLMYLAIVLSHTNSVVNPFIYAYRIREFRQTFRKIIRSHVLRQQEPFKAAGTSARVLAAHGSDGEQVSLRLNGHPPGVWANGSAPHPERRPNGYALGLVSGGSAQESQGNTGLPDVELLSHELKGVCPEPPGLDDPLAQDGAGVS

SMILES | A1 EC50 as a ratio of that of NECA [1] | A2a EC50 as a ratio of that of NECA [2] | A3 EC50 as a ratio of that of NECA [3] | A1 EC50 as a ratio of that of NECA ([1]; Dihydrochloride) | A2a EC50 as a ratio of that of NECA ([2]; Dihydrochloride) | A3 EC50 as a ratio of that of NECA ([3]; Dihydrochloride)
CCn1nnc([C@H]2O[C@@H](n3cnc4c(N)nc(NCCc5ccc(OC)c(OC)c5)nc43)[C@H](O)[C@@H]2O)n1.O=C(O)C(F)(F)F [Example 20, (2R,3R,4S,5R)-2-{6-Amino-2-[2-(3,4-dimethoxy-phenyl)-ethylamino]-purin-9-yl}-5-(2-ethyl-2H-tetrazol-5-yl)-tetrahydro-furan-3,4-diol Trifluoroacetate] | 253 | 0.14 | >183 |  |  | 
CCn1nnc(C2OC(n3cnc4c(NCC(c5ccccc5)c5ccccc5)nc(NC5CCNC5)nc43)C(O)C2O)n1 [Example 21, (2R,3R,4S,5R)-2-[6-(2,2-Diphenyl-ethylamino)-2-(pyrrolidin-3R-ylamino)-purin-9-yl]-5-(2-ethyl-2H-tetrazol-5-yl)-tetrahydro-furan-3,4-diol Dihydrochloride] |  |  |  | 237.9 | 0.69 | >442
CCn1nnc([C@H]2O[C@@H](n3cnc4c(NCC(c5ccccc5)c5ccccc5)nc(NCCc5cccc(N)n5)nc43)[C@H](O)[C@@H]2O)n1.O=C(O)C(F)(F)F.O=C(O)C(F)(F)F.O=C(O)C(F)(F)F [Example 22, (2R,3R,4S,5R)-2-[2-[2-(6-Amino-pyridin-2-yl)-ethylamino]-6-(2,2-diphenyl-ethylamino)-purin-9-yl]-5-(2-ethyl-2H-tetrazol-5-yl)-tetrahydro-furan-3,4-diol tris(Trifluoroacetate)] | 86.4 | 0.67 | >188 |  |  | 
CCn1nnc(C2OC(n3cnc4c(NCc5cccc(I)c5)nc(NC5CCNC5)nc43)C(O)C2O)n1 [Example 23, (2R,3S,4R,5R)-2-(2-Ethyl-2H-tetrazol-5-yl)-5-[6-(3-iodo-benzylamino)-2-(pyrrolidin-3R-ylamino)-purin-9-yl]-tetrahydro-furan-3,4-diol Diformate] | 159 | 0.8 | >336 |  |  | 
Cn1nnc(C2OC(n3cnc4c(NC5CCCC5)nc(NCCN5CCCCC5)nc43)C(O)C2O)n1.O=CO.O=CO [Example 25, (2R,3R,4S,5R)-2-[6-Cyclopentylamino-2-(2-piperidin-1-yl-ethylamino)-purin-9-yl]-5-(2-methyl-2H-tetrazol-5-yl)-tetrahydro-furan-3,4-diol Diformate] | 211.8 | 0.56 | >388 |  |  | 
Cn1nnc(C2OC(n3cnc4c(NCC(c5ccccc5)c5ccccc5)nc(NCCN5CCCCC5)nc43)C(O)C2O)n1.O=CO.O=CO (stereo not drawn) [Example 26] | 241.4 | 0.86 | >329 |  |  | 
Cn1cnc(CCNc2nc(NCC(c3ccccc3)c3ccccc3)c3ncn([C@@H]4O[C@H](c5nnn(C)n5)[C@@H](O)[C@H]4O)c3n2)c1.O=CO [Example 27, (2R,3R,4S,5R)-2-{6-(2,2-Diphenyl-ethylamino)-2-[2-(1-methyl-1H-imidazol-4-yl)-ethylamino]-purin-9-yl}-5-(2-methyl-2H-tetrazol-5-yl)-tetrahydro-furan-3,4-diol Formate] | 449.7 | 0.08 | >286 |  |  | 
Cn1cnc(CCNc2nc(NCCC(C)(C)C)c3ncn([C@@H]4O[C@H](c5nnn(C)n5)[C@@H](O)[C@H]4O)c3n2)c1.O=CO [Example 28, (2R,3R,4S,5R)-2-{6-(3,3-Dimethyl-butylamino)-2-[2-(1-methyl-1H-imidazol-4-yl)-ethylamino]-purin-9-yl}-5-(2-methyl-2H-tetrazol-5-yl)-tetrahydro-furan-3,4-diol Formate] | >=1250 | 0.36 | >151 |  |  | 
Cn1cnc(CCNc2nc(NCc3cccc(I)c3)c3ncn([C@@H]4O[C@H](c5nnn(C)n5)[C@@H](O)[C@H]4O)c3n2)c1.O=CO [Example 29, (2R,3R,4S,5R)-2-{6-(3-Iodo-benzylamino)-2-[2-(1-methyl-1H-imidazol-4-yl)-ethylamino]-purin-9-yl}-5-(2-methyl-2H-tetrazol-5-yl)-tetrahydro-furan-3,4-diol Formate] | >3561 | 0.87 | >105 |  |  | 
Cn1cnc(CCNc2nc(NCc3ccccc3)c3ncn([C@@H]4O[C@H](c5nnn(C)n5)[C@@H](O)[C@H]4O)c3n2)c1.O=CO [Example 30, (2R,3R,4S,5R)-2-{6-Benzylamino-2-[2-(1-methyl-1H-imidazol-4-yl)-ethylamino]-purin-9-yl}-5-(2-methyl-2H-tetrazol-5-yl)-tetrahydro-furan-3,4-diol Formate] | >7976 | 0.43 | >105 |  |  | 
Cn1cnc(CCNc2nc(NCCC3CCCCC3)c3ncn([C@@H]4O[C@H](c5nnn(C)n5)[C@@H](O)[C@H]4O)c3n2)c1.O=CO [Example 31, (2R,3R,4S,5R)-2-{6-(2-Cyclohexyl-ethylamino)-2-[2-(1-methyl-1H-imidazol-4-yl)-ethylamino]-purin-9-yl}-5-(2-methyl-2H-tetrazol-5-yl)-tetrahydro-furan-3,4-diol Formate] | >=3680 | 0.49 | >100 |  |  | 
Cn1cnc(CCNc2nc(NC(CO)Cc3ccccc3)c3ncn(C4OC(c5nnn(C)n5)C(O)C4O)c3n2)c1 [Example 32, (2R,3R,4S,5R)-2-{6-(1S-Hydroxymethyl-2-phenyl-ethylamino)-2-[2-(1-methyl-1H-imidazol-4-yl)-ethylamino]-purin-9-yl}-5-(2-methyl-2H-tetrazol-5-yl)-tetrahydro-furan-3,4-diol Formate] | 56.2 | 0.026 | >100 |  |  | 
CCC(CC)Nc1nc(NCCc2cn(C)cn2)nc2c1ncn2[C@@H]1O[C@H](c2nnn(C)n2)[C@@H](O)[C@H]1O.O=CO [Example 33, (2R,3R,4S,5R)-2-{6-(1-Ethyl-propylamino)-2-[2-(1-methyl-1H-imidazol-4-yl)-ethylamino]-purin-9-yl}-5-(2-methyl-2H-tetrazol-5-yl)-tetrahydro-furan-3,4-diol Formate] | >4045 | 0.16 | >172 |  |  | 
Cn1cnc(CCNc2nc(NCCc3ccccc3)c3ncn([C@@H]4O[C@H](c5nnn(C)n5)[C@@H](O)[C@H]4O)c3n2)c1.O=CO [Example 34, (2R,3R,4S,5R)-2-{2-[2-(1-Methyl-1H-imidazol-4-yl)-ethylamino]-6-phenethylamino-purin-9-yl}-5-(2-methyl-2H-tetrazol-5-yl)-tetrahydro-furan-3,4-diol Formate] | 1316 | 0.13 | >173 |  |  | 
Cn1nnc(C2OC(n3cnc4c(NC(CO)Cc5ccccc5)nc(NC5CCC(N)CC5)nc43)C(O)C2O)n1 [Example 35, (2R,3R,4S,5R)-2-[2-(trans-4-Amino-cyclohexylamino)-6-(1S-hydroxymethyl-2-phenyl-ethylamino)-purin-9-yl]-5-(2-methyl-2H-tetrazol-5-yl)-tetrahydro-furan-3,4-diol bis(Formate)] | 123 | 0.79 | >201 |  |  | 
Cn1nnc(C2OC(n3cnc4c(NC5CCCC5)nc(NC(CO)Cc5ccccc5)nc43)C(O)C2O)n1 [Example 36, (2R,3R,4S,5R)-2-[6-Cyclopentylamino-2-(1S-hydroxymethyl-2-phenyl-ethylamino)-purin-9-yl]-5-(2-methyl-2H-tetrazol-5-yl)-tetrahydro-furan-3,4-diol Formate] | 1.9 | 0.99 | >315 |  |  | 
Cn1nnc(C2OC(n3cnc4c(N)nc(NC(CO)Cc5ccccc5)nc43)C(O)C2O)n1 [Example 37, (2R,3R,4S,5R)-2-[6-Amino-2-(1S-hydroxymethyl-2-phenyl-ethylamino)-purin-9-yl]-5-(2-methyl-2H-tetrazol-5-yl)-tetrahydro-furan-3,4-diol Formate] | 119.1 | 0.52 | >348 |  |  | 
